Results taken from patent US9713608B2, “Method for topically treating actinic keratosis on the trunk (except chest) or extremities with ingenol 3-(3,5-diethylisoxazole-4-carboxylate)” (LEO Laboratories Limited, priority 2013, dated 2017).

Assays:
dermal tumours = assay: in vivo studies in mice, effects on dermal tumours; details: compared to ingenol mebutate
Text: The exact mechanism of action of ingenol 3-(3,5-diethylisoxazole-4-carboxylate) continues to be investigated, but it is believed that ingenol 3-(3,5-diethylisoxazole-4-carboxylate) has a dual mechanism of action inducing cell death as well as stimulation of immune response.

[1] = system: actinic keratosis (AK) lesions; assay: Phase 1 exploratory trial: treatment response of AK lesions (clinical count and Reflectance Confocal Microscopy); type: in vivo, human; details: for RCM findings in lesions: overall, clinically visible AK lesions and subclinical lesions
Text: To evaluate treatment responses on AKs of the three concentrations of ingenol 3-(3,5-diethylisoxazole-4-carboxylate) gel compared to the ingenol mebutate gel as assessed by reduction in number of clinically visible selected AK lesions eight weeks after treatment.
To evaluate treatment responses on AKs of the three concentrations of ingenol 3-(3,5-diethylisoxazole-4-carboxylate) gel compared to the ingenol mebutate gel as assessed by Reflectance Confocal Microscopy (RCM) scoring of the clinically visible selected AK lesions before and eight weeks after treatment.
(§1) The trial population included 40 subjects at least 18 years of age with 12-16 clinically typical, visible, discrete, non-keratotic AK lesions (referred to as selected AK lesions) suitable for RCM within four separate 25 cm^2 (5×5 cm) selected treatment areas (STAs) on the dorsal aspects of the forearms. Each STA was to be separated by at least 5 cm from other STAs.
Whenever possible, four visible and discrete selected AK lesions are identified within each of the four STAs. However, one STA with three selected AK lesions is acceptable for a subject. The selected AK lesions are assessed by RCM. If a selected AK lesion could not be confirmed as an AK lesion by RCM, another STA with selected AK lesions has to be identified. In addition, each subject is to have one subclinical AK lesion suitable for RCM within each STA (these subclinical AKs are referred to as selected subclinical AK lesions).
Treatment efficacy is included as a secondary endpoint and assessed by change in number of clinically visible AK lesions from baseline to 8 weeks after treatment and change in RCM scores from baseline to 8 weeks after treatment.

[2] = Phase 1 exploratory trial: safety and tolerability of topical gel on forearms of subjects with actinic keratosis; type: in vivo, human; details: for mean composite LSR scores, time of peak: 8-week trial period; for mean composite LSR scores at Week 8: Week 8, relative to baseline; for number of SAEs of SCC within treated areas: four SAEs in three subjects, about three times more fields treated with ingenol 3-(3,5-diethylisoxazole-4-carboxylate); for most common treatment related AEs: human, in vivo
Text: Local skin reactions (LSRs) occurs sometimes in the treated area. Often LSRs are quantified by a scale evaluating the following types of skin reactions: erythema, flaking/scaling, crusting, swelling, vasiculation/pustulation, and erosion/ulceration which are categorized into categories 0-4 depending on the severity of the reactions.
A Phase 1 exploratory trial evaluating safety and tolerability of topical administration of ingenol 3-(3,5-diethylisoxazole-4-carboxylate) gel, 0.025%, 0.05% and 0.075% compared to ingenol mebutate gel 0.05% applied on two consecutive days to four separate 25 cm^2 treatment areas on the forearms of subjects with actinic keratosis (field therapy). A single-centre, randomised, active controlled, intra-patient controlled, investigator blind trial.
It is presently believed that ingenol 3-(3,5-diethylisoxazole-4-carboxylate) has a higher efficacy and/or milder LSR profile than ingenol mebutate.
This was a phase 1, single-centre, randomised, active controlled, intra-patient controlled, investigator blinded trial with intra-individual comparisons to explore the safety and tolerability of ingenol 3-(3,5-diethylisoxazole-4-carboxylate) gel 0.025%, 0.05%, and 0.075% compared to ingenol mebutate gel 0.05% applied once daily for two consecutive days on the forearms of subjects with AK.
as §1
For each eligible subject, the four STAs are randomised to receive one of four of the investigational product (IP or IPs): • ingenol 3-(3,5-diethylisoxazole-4-carboxylate) gel 0.025% • ingenol 3-(3,5-diethylisoxazole-4-carboxylate) gel 0.05% • ingenol 3-(3,5-diethylisoxazole-4-carboxylate) gel 0.075% • Ingenol mebutate gel 0.05%
Each IP is to be applied to one of the four STAs on each subject according to random assignment on two consecutive days (Day 1 and Day 2). This ensured that all subjects are treated with the four products on both treatment days. The trial consisted of three periods, a screening period, a treatment period, and an observation and follow-up period.
Each IP is applied to one of the four STAs on each subject according to random assignment on two consecutive days (Day 1 and Day 2). The IPs are applied by a specified investigational staff member in the clinical study protocol. Subjects are instructed about post-treatment care and provided with a patient safety and study medication instruction sheet.

[3] = difficult to treat versus more easily treated anatomical regions; cited from earlier work

Structure (SMILES): CCc1noc(CC)c1C(=O)O[C@H]1C(C)=C[C@]23C(=O)[C@@H](C=C(CO)[C@@H](O)[C@]12O)[C@H]1[C@@H](C[C@H]3C)C1(C)C [ingenol 3-(3,5-diethylisoxazole-4-carboxylate)]
- efficacy in eliminating dermal tumours (dermal tumours): more efficacious than ingeno mebutate
- change of RCM scores ([1]; baseline to 8 weeks, between the two actives): no difference
- RCM findings in lesions [1]: honeycomb pattern of lesions improved, keratosis decreased, and the thickness of stratum corneum and viable epidermis decreased
- mean composite LSR scores, time of peak [2]: peaked at Week 1
- mean composite LSR scores at Week 8 [2]: below baseline at Week 8
- incidence of AEs inside STAs ([2]; between treatments): no difference
- number of SAEs of SCC within treated areas [2]: Two
- most common treatment related AEs [2]: pruritus, burning sensation and tenderness
- events of Bowen's disease inside treated area ([2]; possibly related AE, reclassified to SAE by sponsor): one

Structure (SMILES): C/C=C(/C)C(=O)O[C@H]1C(C)=C[C@]23C(=O)[C@@H](C=C(CO)[C@@H](O)[C@]12O)[C@H]1[C@@H](C[C@H]3C)C1(C)C [ingenol mebutate, reference compound]
- RCM findings in lesions [1]: honeycomb pattern of lesions improved, keratosis decreased, and the thickness of stratum corneum and viable epidermis decreased
- local skin reactions after a given dose [3]: milder on difficult to treat anatomical regions
- mean composite LSR scores, time of peak [2]: peaked at Week 1
- mean composite LSR scores at Week 8 [2]: below baseline at Week 8
- number of SAEs of SCC within treated areas [2]: two
- most common treatment related AEs [2]: pruritus, burning sensation and tenderness
